In patent US20240132517A1, “MACROCYCLIC COMPOUND, PHARMACEUTICAL COMPOSITION, AND USE THEREOF” (GOHARMONY THERAPEUTICS (SHENZHEN) CO., LTD., priority 2021, published 2024):

Legend:
SRC = SRC (Homo sapiens (Human), UniProt P12931); experiment: Enzymatic inhibitory activity, mobility shift assay, SRC; settings: read-out: SRC IC50; kinase mobility shift assay
Protocol: The powders of the compound were dissolved in 100% DMSO to make a 10 mM stock solution. […] A stop detection solution was added to stop the enzymatic reaction, and the conversion rate was read with Caliper EZ Reader II.

SNU-5 cells = experiment: Cell viability assay against SNU-5 cells (CellTiter-Glo); type: cell-based; settings: Homo sapiens, 72 hours
Protocol: Human gastric cancer cell line SNU-5 culture medium was IMDM basal culture medium supplemented with 10% FBS (fetal bovine serum) and 1% P/S (penicillin/streptomycin), Ba/F3-TEL-CSF1R stably transfected cell line medium was RPMI-1640 medium supplemented with 10% FBS and 1% P/S. Both cell lines were cultured in a carbon dioxide incubator at 37° C. with a CO2 concentration of 5%.
(§1) In the assay of compounds, SNU-5 and Ba/F3-TEL-CSF1R cells were plated in 96-well cell culture plates (Corning, Cat# 3610) at a concentration of 3000 cells/100 μL per well, and cultured overnight. Starting from 200 μM, the compound was subjected to a 3-fold gradient with DMSO, and a total of 9 concentrations were diluted to prepare a 200-fold drug solution. 3 μl of the 200-fold concentration compound was diluted with 197 μl of complete medium to obtain a 3-fold concentration compound. 50 μl of the latter was took and added to the cell well plate, and culture was continued for 72 hours. The cell culture plate was equilibrated to room temperature before assay, and 40 μL of CellTiter-Glo (Promega, Cat# G7571) was added to each well, and the cells were lysed by shaking for two minutes. The cell plate was then left at room temperature for 60 minutes to stabilize the luminescence signal. Luminescence values were read using a PerkinElemer Envision multifunctional plate reader.
(§2) Data analysis: • Luminescence values were processed using the following formula:
(§3) %Inh=(Max signal−Compound signal)/(Max signal−Min signal)×100 • Max signal: value of a DMSO treatment group; • Min signal: value of a blank medium group.
(§4) The processed data were analyzed using GraphPad Prism 5.0 software, and nonlinear S-curve regression was used to fit the data to derive dose-response curves from which IC50 values were calculated.

[1] = test system: HCC827 cells (MET overexpression); experiment: Synergistic killing of tumor cells with AZD9291, HCC827; type: cell-based, human; settings: 72 hours
Protocol: (§5) Human lung cancer cells H1975 cells (L858R and T790M double mutations) and HCC827 cells were incubated in an incubator (37° C., 5% CO2) with 1640 medium plus 10% FBS (fetal bovine serum) and 1% P/S (penicillin/ streptomycin) for culture. In the assay of the compound, H1975 cells or HCC827 were plated in a 96-well plate (Corning) at a concentration of 3000 cells/195 μL per well, and the compound was serially diluted to 11 concentrations starting from 10 mM, and 4 μL of each concentration was added into 96 μL of 1640 cluture medium and diluted to form 25× compound, then 5 μL was took and added to 195 μL of cell culture medium (DMSO final concentration is 0.1%, v/v). After 72 hours of treatment, 35 μL of CellTiter-Blue® (purchased from Promega) was added. The fluorescent signal was measured on Flex Station3 (Molecular Devices) according to the operating procedure of the manual, and the IC50 value of inhibition on cell proliferation of the compound was calculated using GraphPad Prism5.0. The Chou-Talalay combination index method was used to calculate the effect of the combination. The combination index (Col) value 0.9≤CI≤1.1 is an additive effect, 0.8≤CI<0.9 is a low synergistic effect, 0.6≤CI<0.8 is a moderate synergistic effect, and 0.4 <CI<0.6 is highly synergistic, and 0.2≤CI<0.4 is strong synergistic.

[2] = Pharmacokinetic experiments in rats; type: in vivo; settings: male SD rats, 1 mg/kg, oral gavage and intravenous injection
Protocol: Male SD rats were divided into groups, 3 rats in each group, and the compound of the Examples (1 mg/kg) was given by oral, single gavage and intravenous injection, respectively. The animals were fasted overnight before the experiments, and the fasting time was from 10 hours before administration to 4 hours after administration. Blood was collected at 0.25, 0.5, 1, 2, 4, 8 and 24 hours after administration in the oral group, and at 0.083, 0.25, 0.5, 1, 2, 4, 8 and 24 hours after injection in the intravenous injection group. After anesthesia with isoflurane using a small animal anesthesia machine, 0.3 mL of whole blood was collected through the fundus venous plexus and placed in a heparin anticoagulant tube. The sample was centrifuged at 4° C.and 4000 rpm for 5 minutes, the plasma was transferred to a centrifuge tube, and placed at […] and stored until analysis. Plasma samples were extracted by protein precipitation, and the extract was analyzed by LC/MS/MS.

c-Met = c-Met (Homo sapiens (Human), UniProt P08581); experiment: Enzymatic inhibitory activity, mobility shift assay, c-Met; type: biochemical; settings: kinase mobility shift assay
c-Met, sequence (P08581 25-1390): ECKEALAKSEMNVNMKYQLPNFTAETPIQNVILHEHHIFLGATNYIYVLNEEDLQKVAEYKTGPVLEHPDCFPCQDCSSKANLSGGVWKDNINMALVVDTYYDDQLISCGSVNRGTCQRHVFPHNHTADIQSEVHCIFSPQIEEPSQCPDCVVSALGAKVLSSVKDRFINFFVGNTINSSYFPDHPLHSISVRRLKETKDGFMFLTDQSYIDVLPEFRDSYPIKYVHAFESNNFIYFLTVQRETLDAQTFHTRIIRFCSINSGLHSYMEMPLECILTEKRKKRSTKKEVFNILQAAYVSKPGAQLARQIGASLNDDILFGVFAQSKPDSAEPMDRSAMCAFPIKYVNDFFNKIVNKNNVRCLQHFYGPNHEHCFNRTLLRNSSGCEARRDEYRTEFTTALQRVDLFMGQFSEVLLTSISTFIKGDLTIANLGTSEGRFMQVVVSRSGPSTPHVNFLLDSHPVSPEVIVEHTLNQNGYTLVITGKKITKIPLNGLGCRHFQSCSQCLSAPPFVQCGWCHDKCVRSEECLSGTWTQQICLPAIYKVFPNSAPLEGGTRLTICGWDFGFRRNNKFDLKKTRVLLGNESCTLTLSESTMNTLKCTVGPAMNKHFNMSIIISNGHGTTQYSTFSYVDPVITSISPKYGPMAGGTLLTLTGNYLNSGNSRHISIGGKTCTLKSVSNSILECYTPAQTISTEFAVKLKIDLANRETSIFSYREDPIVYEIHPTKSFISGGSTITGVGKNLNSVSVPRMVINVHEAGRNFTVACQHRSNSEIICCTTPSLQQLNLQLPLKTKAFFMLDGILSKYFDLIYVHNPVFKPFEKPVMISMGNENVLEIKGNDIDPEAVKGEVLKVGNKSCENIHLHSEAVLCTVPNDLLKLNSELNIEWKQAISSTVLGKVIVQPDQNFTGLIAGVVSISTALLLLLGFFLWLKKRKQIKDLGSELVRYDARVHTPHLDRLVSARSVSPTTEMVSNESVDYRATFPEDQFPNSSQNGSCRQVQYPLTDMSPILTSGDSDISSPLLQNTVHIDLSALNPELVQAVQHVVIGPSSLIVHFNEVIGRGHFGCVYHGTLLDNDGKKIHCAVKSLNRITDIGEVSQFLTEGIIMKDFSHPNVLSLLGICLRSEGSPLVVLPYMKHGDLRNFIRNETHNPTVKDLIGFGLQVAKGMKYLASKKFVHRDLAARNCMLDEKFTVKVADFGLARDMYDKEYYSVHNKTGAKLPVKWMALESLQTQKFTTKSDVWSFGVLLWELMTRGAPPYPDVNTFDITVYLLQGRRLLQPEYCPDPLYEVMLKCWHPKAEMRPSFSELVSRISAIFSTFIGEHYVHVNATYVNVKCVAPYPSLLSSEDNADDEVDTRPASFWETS
From the text: (§6) Compounds against MET, SRC and CSF1R kinases were screened by use of mobility shift assay. The core of this screening platform was the MSA based on microfluidic chip technology, which applied the basic idea of capillary electrophoresis to a microfluidic environment. The substrate used in the experiment was a polypeptide with fluorescent labeling. Under the catalysis of the enzyme in the reaction system, the substrate was converted into a product, and it carried charge also changed accordingly. MSA utilized the difference in charge between the substrate and the product to separate them, and detect them separately.
(§7) The operation method is briefly described as follows:
(§8) The powders of the compound were dissolved in 100% DMSO to make a 10 mM stock solution. The initial test concentration of the compound was 10,000 nM, 3-fold serial dilution, 10 concentrations, and repeated hole detection. […] A stop detection solution was added to stop the enzymatic reaction, and the conversion rate was read with Caliper EZ Reader II.
(§9) wherein: Conversion%_sample is the conversion rate reading of the sample; Conversion%_min: the average value of the negative control wells, representing the conversion rate readings of the wells without enzyme activity; Conversion%_max: the average ratio of the positive control wells, representing the conversion rate readings of the wells without compound inhibition.
(§10) Dose-response curve fitting: with the log value of the concentration as the X-axis, and the percentage inhibition rate as the Y-axis, the log(inhibitor) vs. response-Variable slope of the analysis software GraphPad Prism 5 was used to fit the dose-response curve, thereby obtaining IC50 values of each compound against inhibition of enzyme activity.

[3] = Blood-brain distribution experiments in rats; type: in vivo; settings: male SD rats
Protocol: The male SD rats were divided into groups, 12 in each group, and the compound of the Examples (10 mg/kg) was administered orally or by gavage. The animals were fasted overnight before the experiments, and the fasting time was from 10 hours before administration to 4 hours after administration. According to the previous pharmacokinetic data, the rats in the Example 1 group were killed at 0.25, 0.5, 2 and 6 hours after administration; the rats in the TPX-0022 group were killed at 0.25, 1, 4 and 8 hours after administration, and blood and brain tissue were collected. After the samples were processed, they were centrifuged at 4° C., 4000 rpm for 5 min, and the plasma was transferred to a centrifuge tube and stored at −80° C.until analysis. Plasma samples were extracted by protein precipitation, and the extract was analyzed by LC/MS/MS.

CSF1R = CSF1R (Homo sapiens (Human), UniProt P07333); experiment: Enzymatic inhibitory activity, mobility shift assay, CSF1R; type: biochemical; settings: kinase mobility shift assay
CSF1R, sequence (P07333 20-972): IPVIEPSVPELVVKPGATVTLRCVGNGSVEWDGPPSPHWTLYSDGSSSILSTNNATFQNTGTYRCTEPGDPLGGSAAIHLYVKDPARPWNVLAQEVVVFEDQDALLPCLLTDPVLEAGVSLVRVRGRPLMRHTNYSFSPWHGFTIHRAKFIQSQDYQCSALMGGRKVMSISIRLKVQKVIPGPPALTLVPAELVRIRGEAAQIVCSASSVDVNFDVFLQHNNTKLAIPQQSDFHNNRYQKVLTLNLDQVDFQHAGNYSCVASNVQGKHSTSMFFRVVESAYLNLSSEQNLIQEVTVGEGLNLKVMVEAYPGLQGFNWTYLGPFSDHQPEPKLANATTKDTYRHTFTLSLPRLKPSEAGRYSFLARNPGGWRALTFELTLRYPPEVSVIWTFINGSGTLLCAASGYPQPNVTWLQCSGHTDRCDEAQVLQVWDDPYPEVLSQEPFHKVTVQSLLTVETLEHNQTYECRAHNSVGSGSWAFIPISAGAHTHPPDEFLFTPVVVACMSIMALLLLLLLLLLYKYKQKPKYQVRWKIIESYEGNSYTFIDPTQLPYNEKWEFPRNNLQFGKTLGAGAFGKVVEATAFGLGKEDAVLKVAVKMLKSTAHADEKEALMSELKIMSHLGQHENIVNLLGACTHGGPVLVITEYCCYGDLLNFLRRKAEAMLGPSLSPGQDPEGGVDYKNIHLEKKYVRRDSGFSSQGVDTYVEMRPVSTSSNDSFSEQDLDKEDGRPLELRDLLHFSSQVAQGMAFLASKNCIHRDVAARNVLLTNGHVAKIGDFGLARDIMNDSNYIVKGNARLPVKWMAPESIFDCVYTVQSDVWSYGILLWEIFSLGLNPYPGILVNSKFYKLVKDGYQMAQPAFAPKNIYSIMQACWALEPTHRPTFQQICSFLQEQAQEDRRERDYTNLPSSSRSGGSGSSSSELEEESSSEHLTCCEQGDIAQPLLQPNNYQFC
From the text: as §6, §7, §8, §9, §10

HCC827 cells = experiment: Cell viability assay against HCC827 cells (CellTiter-Glo); type: cell-based, human; settings: 72 hours
Protocol: Human non-small cell lung cancer cells, HCC827 cells, were cultured in an incubator (37° C., 5% CO2) with 1640 medium plus 10% FBS (fetal bovine serum) and 1% P/S (penicillin/streptomycin). In the assay of the compound, the HCC827 cells were plated in a 96-well transparent flat-bottomed black wall plate (Corning, Cat# 3603) at a concentration of 3000 cells/90 uL per well, and the compound was diluted 11 times in a 3-fold gradient starting from 10 mM, and prepared a 10-fold drug solution. Then 10 μL was taken and added to 90 μL of cell culture medium (DMSO final concentration was 0.1%, v/v). After 72 hours of treatment, 100 μL of CellTiter-Glo (Promega, Cat#G7572) was added, cells were lysed by shaking on an orbital shaker for 5 minutes. The cell plate was then left at room temperature for 20 minutes to stabilize the luminescence signal. Luminescence values were read with a SpectraMax Multilabel Microplate Reader (MD, 2104-0010A).
Data were analyzed using GraphPad Prism 5.0 software, and nonlinear S-curve regression was used to fit the data to derive dose-response curves from which IC50 values were calculated.
Cell Viability (%)=(Lumdrug to be tested−Lumculture medium control)/(Lumcell control−Lumculture medium control)×100%.

[4] = test system: H1975 cells (L858R and T790M double mutations); experiment: Synergistic killing of tumor cells with AZD9291, H1975; type: cell-based, human; settings: 72 hours
Protocol: as §5

Ba/F3-TEL-CSF1R = experiment: Cell viability assay against Ba/F3-TEL-CSF1R cells (CellTiter-Glo); type: cell-based; settings: 72 hours, read-out: Baf3-TEL CSF1R IC50
Protocol: as §1, with “Starting” for “In the assay of compounds, SNU-5 and Ba/F3-TEL-CSF1R cells were plated in 96-well cell culture plates (Corning, Cat# 3610) at a concentration of 3000 cells/100 μL per well, and cultured overnight. Starting”
as §2, §3, §4

SRC, sequence (P12931 whole entry, looked up): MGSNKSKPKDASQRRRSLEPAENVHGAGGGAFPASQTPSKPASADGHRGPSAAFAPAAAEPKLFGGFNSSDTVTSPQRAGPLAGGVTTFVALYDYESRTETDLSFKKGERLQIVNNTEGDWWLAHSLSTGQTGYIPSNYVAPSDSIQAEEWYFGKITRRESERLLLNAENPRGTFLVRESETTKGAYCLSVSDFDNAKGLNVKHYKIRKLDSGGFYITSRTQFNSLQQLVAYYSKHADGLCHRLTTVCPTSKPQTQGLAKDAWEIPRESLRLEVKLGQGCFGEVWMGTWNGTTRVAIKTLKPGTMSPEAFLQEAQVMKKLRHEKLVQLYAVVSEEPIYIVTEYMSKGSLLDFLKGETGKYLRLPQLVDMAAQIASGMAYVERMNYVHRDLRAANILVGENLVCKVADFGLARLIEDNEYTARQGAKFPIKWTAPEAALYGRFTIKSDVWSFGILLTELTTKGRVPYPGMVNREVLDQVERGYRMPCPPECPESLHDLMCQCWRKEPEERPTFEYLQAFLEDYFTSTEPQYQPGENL

IC50 (SRC) [nM] | IC50 (SNU-5 cells) [nM] | IC50 (c-Met) [nM] | Kp ([3]; Sprague-Dawley (SD), rat, brain / plasma, oral, 10 mg/kg gavage, 0.25, 0.5, 2 and 6 hours, read-out: drug brain/blood distribution ratio) | entry into brain tissue ([3]; 10 mg/kg gavage) | IC50 (CSF1R) [nM] | IC50 (Ba/F3-TEL-CSF1R) [nM] | SMILES | combination effect with AZD9291 (Chou-Talalay combination index) [1] | pharmacokinetic properties [2] | inhibitory effect on HCC827 cells (HCC827 cells) | combination effect with AZD9291 (Chou-Talalay combination index) [4]
15 | 1.83 | 0.93 | 1.16 to 6.4 | can enter the brain tissue | 0.42 | 3.4 | CCN1Cc2c(ccc(F)c2C#N)O[C@@H](C)COC(=O)c2cnn3ccc1nc23 [Example 1, (S, 1^3E, 1^4E)-2-ethyl-45-fluoro-6-methyl-9-oxo-5,8-dioxa-2-aza-1(5,3)-pyrazolo[1,5-a]pyrimidine-4(1,2)-benzocyclononane-4^6-carbonitrile] | moderate to high synergistic effect | better pharmacokinetic and pharmacokinetic properties | very obvious inhibitory effect | moderate to high synergistic effect
289 | – | 85 | – | – | > 10000 | – | C[C@H]1COC(=O)c2cnn3ccc(nc23)N[C@H](C)c2cc(F)ccc2O1 [Comparative Compound 42, reference compound] | – | – | – | –
30 | 3.36 | 1.8 | – | – | 2.2 | 7 | CCN1Cc2c(ccc(F)c2C#N)O[C@@H](C)COC(=O)c2c(N)nn3ccc1nc23 [Example 2, (S, 1^3E, 1^4E)-1^2-amino-2-ethyl-4^5-fluoro-6-methyl-9-oxo-5,8-dioxa-2-aza-1(5,3)-pyrazolo[1,5-a]pyrimidine-4(1,2)-benzocyclononane-4^6 carbonitrile] | – | better pharmacokinetic and pharmacokinetic properties | – | –

SMILES | IC50 (SRC) [nM] | IC50 (SNU-5 cells) [nM] | IC50 (c-Met) [nM] | Kp ([3]; Sprague-Dawley (SD), rat, brain / plasma, oral, 10 mg/kg gavage, 0.25, 0.5, 2 and 6 hours, read-out: drug brain/blood distribution ratio) | entry into brain tissue ([3]; 10 mg/kg gavage) | IC50 (CSF1R) [nM] | IC50 (Ba/F3-TEL-CSF1R) [nM] | combination effect with AZD9291 (Chou-Talalay combination index) [1] | pharmacokinetic properties [2] | inhibitory effect on HCC827 cells (HCC827 cells) | combination effect with AZD9291 (Chou-Talalay combination index) [4]
CCN1Cc2c(ccc(F)c2C#N)O[C@@H](C)CNC(=O)c2c(N)nn3ccc1nc23 [TPX-0022, reference compound] | 7.5 | 6.26 | – | – | – | – | – | – | – | – | –
